Series [1] is described as follows: Solubility observations. It is filed as physicochemical. Particulars: SPR running buffer with 5% DMSO; KD could not be determined.
Series [2] has as its system rat IPMK. On the set-up: method as in PMID 24670057. Conditions: at a concentration of 10 µM; cited from earlier work.
Series [3] concerns human IP3K. Also noted: method as in PMID 12210991. Particulars: read-out: IC50 against IP3K; cited from earlier work.
The test system of series [4] is CnArg1 (IP3-4K from C. neoformans). Description: Kinase-Glo enzyme inhibition assay, recombinant CnArg1. It is filed as biochemical. Conditions: selectivity, ratio higher than 1 = more selective for CnArg1. As to the method: (§1) The 2,6-disubstituted purine compounds are ATP-competitive IPK inhibitors. […] The amount of IP3 and kinase used for each recombinant enzyme was determined following the manufacturer’s instructions, and this concentration was used to assess the inhibitory properties of TNP analogues against each of the recombinant enzymes.
(§2) The analogues were dissolved in DMSO. For the assay, the inhibitors were added to the reaction mixture to achieve a final concentration of 50 µM in 5% DMSO (1:20 dilution). To achieve inhibitor concentrations lower than 50 µM in the assay, the inhibitor stock was first serially diluted two-fold in DMSO and added to the reaction mixture, to achieve concentrations ranging between 0.8 μM and 50 µM in 5% DMSO. Once all analogues and their dilution series had been added, the reaction was started by adding an optimal amount of recombinant IP3-4K enzyme. The reaction was stopped after 10-min incubation at room temperature by adding a 50 µL of Kinase-Glo® reagent. The mixture was incubated at room temperature in the dark for 10–15 min. Luminescence (RLU) was measured using a SpectraMax iD5 and an integration time of 0.5 s. Percent enzyme activity was defined as (RLUnegative − RLUsample)/(RLUnegative − RLUpositive) × 100. ‘Positive’ refers to 100% enzyme activity (no inhibitor used as the positive control), while ‘negative’ refers to 0% enzyme activity (no enzyme used as the negative control).
(§3) Next, we determined the inhibitory properties of TNP. TNP is an ATP-competitive inhibitor [34]. […] IP3 and enzyme concentrations were also optimised following the manufacturer’s instructions. […] This optimal amount of IP3 was then used to test varying concentrations of the kinase ranging from 0 to 20 ng/µL. The amount of kinase that produced luminescence values in the linear range of the kinase titration curve was deemed to be the optimal kinase amount.
In general terms: Kinase-Glo measures the ATP left after a reaction by luminescence.

For series [5], the system named is IP6K. Also noted: method as in PMID 19208622. Particulars: read-out: IC50 against IP6K; cited from earlier work.
In series [6] the test system is CaIpk2 (IP3-4K from C. albicans). Description: Kinase-Glo enzyme inhibition assay, recombinant CaIpk2. Conditions: tested up to 50 µM; 10 µM ATP, 25 µM IP3. It is filed as biochemical, Candida albicans. As to the method:
as §1
as §2, with “Percent enzyme activity was defined as (RLUnegative − RLUsample)/(RLUnegative − RLUpositive) × 100. ‘Positive’ refers to 100% enzyme activity (no inhibitor used as the positive control), while ‘negative’ refers to 0% enzyme activity (no enzyme used as the negative control).” left out
Next, we determined the inhibitory properties of TNP. […] The amount of kinase that produced luminescence values in the linear range of the kinase titration curve was deemed to be the optimal kinase amount.

The target of series [7] is HsIPMK (Homo sapiens, UniProt Q8NFU5). Description: Kinase-Glo enzyme inhibition assay, recombinant HsIPMK. Note: 6 ng/µL enzyme. It is filed as biochemical. Also noted: GST (N, cleaved yes); made in house; host or cells: E. coli BL21 (DE3); plasmid made by GenScript. As to the method: as §1, §2, §3
Series [8] deals with CnArg1 (Cryptococcus neoformans var. grubii, UniProt J9W3G0). Put plainly: Surface plasmon resonance (SPR) binding to immobilised CnArg1. Particulars: 6.25–200 µM, 10 °C, steady-state affinity, mean ± SEM. Here is the method:
SPR was carried out on a Biacore T200 (Cytiva, Marlborough, MA, USA). A streptavidin surface was prepared by amine coupling streptavidin to a CM5 chip using standard procedures in 20 mM HEPES, 150 mM NaCl pH 7.5 at 37 °C. Briefly, the surface was activated by injection of 1:1 NHS:EDC (N-ethyl-N’-(3-(dimethylamino)propyl)carbodiimide/N-hydroxysuccinimide) followed by a 7-min injection of 100 µg/mL streptavidin in 10 mM sodium acetate (pH 4.5) at a flow rate of 2 µL/min. Unreacted groups on the surface were blocked by injection of 1 M ethanolamine (pH 8.0). Purified recombinant CnArg1 was N-terminally biotinylated and immobilised to a level of ~4000 RU onto the streptavidin surface at 25 °C in 20 mM HEPES, 200 mM NaCl, 5 mM MgCl2 (pH 7.5) at a flow rate of 2 µL/min.
For analysis, compounds were prepared to 50 mM in 100% DMSO and diluted to the desired concentration in SPR running buffer; 20 mM HEPES (pH 7.5), 200 mM NaCl, 5 mM MgCl2, 5% DMSO. Analysis was carried out using multi-cycle kinetics over a compound concentration range of 6.25–200 µM in running buffer at 10 °C, with an association time of 60 s and a dissociation time of 120 s. Data were reference subtracted, and a solvent correction applied. Analysis was carried out using Biacore T200 Evaluation Software and all data fit to a 1:1 Langmuir binding isotherm.
On the technique in general: SPR reads the build-up and loss of mass on a sensor chip optically.

Series [9] addresses CnArg1 (IP3-4K from C. neoformans) (Cryptococcus neoformans var. grubii, UniProt J9W3G0). Description: Kinase-Glo enzyme inhibition assay, recombinant CnArg1. It is filed as biochemical. Conditions: 10 µM ATP, 50 µM IP3, 2.5 ng/µL enzyme, 10 min, room temperature, 5% DMSO; mean ± SEM. As to the method: as §1, §2, §3

“Also recorded” adds a separate entry of the source.

HsIPMK, sequence (Q8NFU5 whole entry): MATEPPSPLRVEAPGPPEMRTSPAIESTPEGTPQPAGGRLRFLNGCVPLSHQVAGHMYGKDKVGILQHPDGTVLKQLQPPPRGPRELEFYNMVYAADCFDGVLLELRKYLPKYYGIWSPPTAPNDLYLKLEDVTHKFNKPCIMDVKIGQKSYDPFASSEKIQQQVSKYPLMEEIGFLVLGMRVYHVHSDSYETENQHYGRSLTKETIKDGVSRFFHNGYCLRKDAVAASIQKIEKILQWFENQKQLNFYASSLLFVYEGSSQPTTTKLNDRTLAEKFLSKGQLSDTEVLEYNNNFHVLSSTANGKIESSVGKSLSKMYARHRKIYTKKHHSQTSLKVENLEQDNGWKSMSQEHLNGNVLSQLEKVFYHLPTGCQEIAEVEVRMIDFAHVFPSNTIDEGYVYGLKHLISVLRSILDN
CnArg1 (IP3-4K from C. neoformans) (Cryptococcus neoformans var. grubii, UniProt J9W3G0), sequence (J9W3G0 entry or part of it): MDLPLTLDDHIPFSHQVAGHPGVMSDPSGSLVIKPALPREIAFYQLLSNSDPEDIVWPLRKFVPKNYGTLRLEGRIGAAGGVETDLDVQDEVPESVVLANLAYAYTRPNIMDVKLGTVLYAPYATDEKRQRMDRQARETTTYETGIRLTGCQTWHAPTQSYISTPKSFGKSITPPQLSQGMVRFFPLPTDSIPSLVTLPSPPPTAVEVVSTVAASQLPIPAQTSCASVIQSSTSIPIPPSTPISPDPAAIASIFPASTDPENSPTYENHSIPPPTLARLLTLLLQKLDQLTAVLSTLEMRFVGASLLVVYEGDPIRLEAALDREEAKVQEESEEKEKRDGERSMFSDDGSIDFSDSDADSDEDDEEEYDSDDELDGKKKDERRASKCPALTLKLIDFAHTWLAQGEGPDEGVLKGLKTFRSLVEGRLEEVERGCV
CnArg1, sequence (J9W3G0 entry or part of it): as above

For orientation: IC50 means the concentration needed to halve the response being measured. For `O=[N+]([O-])c1ccc(CNc2nc(NCc3cccc(C(F)(F)F)c3)nc3[nH]cnc23)cc1` [TNP, N2-(m-trifluorobenzylamino)-N6-(p-nitrobenzylamino)purine], the “Solubility in SPR analysis” value in series [1] was “Poor solubility—ND”. The “Inhibition of rat IPMK” value in [2] is recorded as “does not inhibit”. The IC50 is 10 µM in series [3] and 0.47 µM in series [5]. Further, in [4], the “HsIPMK/CnArg1 IC50 ratio” value stood at 0.3. For the same molecule, the “Inhibition of CaIpk2” value in [6] was “did not inhibit; also recorded: no inhibitory activity”.

With `COCCNc1nc(Nc2ccc(O)cc2)nc2[nH]cnc12` [Compound 37], the IC50 stood at 7 ± 1 µM in series [7] and 17 ± 2 µM in [9]. Also, the KD entry in series [8] is on record as “No binding”. Also, in [4], the “HsIPMK/CnArg1 IC50 ratio” value is on record as 0.4.

The record behind these values is PMC9599641, “TNP Analogues Inhibit the Virulence Promoting IP3-4 Kinase Arg1 in the Fungal Pathogen Cryptococcus neoformans” (Biomolecules, 2022).
